Assay results as given in patent US11419875B2, “Compounds and compositions for treating hematological disorders” (Aurigene Discovery Technologies Limited, priority 2017, dated 2022).

Experiments:
MV4-11 cells [1] = test: MV4-11 CellTiter Glo cell viability/proliferation assay (Example 2); type: cell-based; settings: Homo sapiens, 72 hours, CellTiter Glo, read-out: MV4-11 IC50
Procedure: The CellTiter Glo Luminescent cell viability assay is a highly sensitive homogenous assay to determine the number of viable cells in culture based on quantitation of ATP levels in metabolically active cells. Addition of CTG reagent results in cell lysis and generation of a luminescent signal proportional to the amount of ATP present. The amount of ATP is proportional to the number of cells present. The luminescence is measured using a multilabel reader capable of measuring luminescence. An increase or decrease in cell numbers results in a concomitant change in luminescene level, indicating the effect of the test material on cellular proliferation.
CellTiter-Glo buffer was thawed and equilibrated to room temperature. Lyophilized CellTiter-Glo substrate was brought to room temperature. CTG reagent is prepared by mixing the CellTiter-Glo buffer (Promega Cat #G7572) into an amber bottle containing CellTiter-Glo substrate to reconstitute the lyophilized enzyme/substrate mixture. Both Buffer and the lyophilized substrate are supplied with the kit.
Add 1% Penicillin Streptomycin and 10% FBS to commercially available liquid IMDM (Iscove's Modified Dulbecco's Medium, Invitrogen Cat #12440046).
1. MV4-11 cells were counted and re-suspended to a density of 0.1×10^6 cells/ml in complete IMDM medium. 95 μL of this cell suspension was added per well of a 96-well plate (black plate with clear bottom) to seed ˜0.1×10^5 cells per well. The plates were incubated at 37° C. under a humidified atmosphere of 5% CO2 for ˜2 hours before compound addition. 2. Test compounds were dissolved in 100% DMSO to generate a 2/6/10/20 mM stock solution. A 200× concentration of the required final concentrations was prepared in DMSO. 10 μL of each concentration (200×) was then diluted in 90 μL of serum-free IMDM to prepare an intermediate concentration of 20× in medium. The DMSO concentration in this step was 10% (Intermediate dilution). 5 μL of each intermediate dilution was then added in triplicates to cells previously seeded in 96-well plate. The final DMSO concentration was 0.5% in the experimental wells. Cells treated with 0.5% DMSO served as a positive control. 100 μL of complete IMDM medium served as media blank for data analysis. 200 μL of 1×PBS was added in all corner wells of the assay plate to avoid evaporation of media in experimental wells. Plates were then incubated for 72 hours in an incubator with 5% CO2 at 37° C. 3. To terminate the assay, 50 μL of CTG reagent was added to each well and the plate was incubated at room temperature for 15 minutes on a shaker. The plate was read using the luminescence mode on a multilabel reader capable of measuring luminescence. The luminescence values were plotted against respective concentrations of the test item using GraphPad Prism to calculate the IC50 value for the test item. Percent Inhibition is Calculated as Follows: […]
Positive control wells contained cells, IMDM medium and 0.5% DMSO. Blank control wells contained IMDM medium alone.

MV4-11 cells [2] = test: AML xenograft model MV4-11, in vivo tumor growth inhibition; settings: 21 days
Procedure: ND-2158 at 100 mpk was used as a control.
MV4-11 cells were grown in Iscove's Modified Dulbecco's medium supplemented with 10% FBS and 1% penicillin streptomycin. To establish tumors, 15×10^6 MV4-11 cells were injected subcutaneously in 200 μl of 1:1 HBSS and ECM gel into the right flank of the athymic nude mice. Animals were randomized based on tumor volumes. […] Treatments were initiated when the average tumor volume sizes were 333 mm^3. Tumor volumes were measured three times a week and body weights were monitored daily.

SMILES	IC50 (MV4-11 cells [1]) [nM]	further results
Cc1cc(-c2nc(C(=O)Nc3cnc4nc(N5CCOCC5)sc4c3)co2)ccn1	< 50	–
N[C@H]1CCN(c2cccc(C(=O)Nc3cc4sc(N5CCOCC5)nc4nc3N3CCCCC3)n2)C1	> 500	–
O=C(Nc1cc2sc(N3CCOCC3)nc2nc1C1CC1)c1cccc(N2CC[C@H](O)C2)n1	> 500	–
O=C(Nc1cc2sc(N3CCOCC3)nc2nc1N1CCC1)c1cccc(N2CC[C@H](O)C2)n1	> 500	–
Cn1cc(-c2cccc(C(=O)Nc3cc4sc(N5CCOCC5)nc4nc3N3CCCCC3)n2)cn1	< 50	–
Cn1cc(-c2cccc(C(=O)Nc3cc4sc(N5CCCCC5)nc4nc3N3CCCCC3)n2)cn1	< 50	–
Cc1nn(C)c2cc(N3CCC(CO)CC3)c(NC(=O)c3coc(-c4ccnc(N)c4)n3)cc12	< 50	–
C[C@H](O)Cn1cc(-c2cccc(C(=O)Nc3cc4sc(N5CCOCC5)nc4nc3C3CC3)n2)cn1	< 50	–
Cc1cc(-c2nc(C(=O)Nc3cc4sc(N5CCOCC5)nc4nc3N3CC[C@@H](O)C3)co2)ccn1	< 50	–
O=C(Nc1cc2oc(N3CCCCC3)nc2nc1N1CCCCC1)c1cccc(-c2cn[nH]c2)n1	< 50	–
Cc1cc(-c2nc(C(=O)Nc3cc4oc(N5CCOCC5)nc4nc3N3CC[C@@H](O)C3)co2)ccn1 [drawing 32]	< 50	–
Cn1cc2cc(NC(=O)c3cccc(N4CCC(O)C4)n3)c(N3CCCCC3)cc2n1 (stereo not shown)	50 to 500	–
Nc1ccc(-c2cccc(C(=O)Nc3cnc4nc(N5CCOCC5)sc4c3)n2)cn1	> 500	–
Nc1ccc(-c2cccc(C(=O)Nc3cc4sc(N5CCOCC5)nc4cn3)n2)cn1	50 to 500	–
Cc1cc(-c2nc(C(=O)Nc3cc4oc(N5CCOCC5)nc4nc3N3CC[C@H](O)C3)co2)ccn1	< 50	–
NC(=O)[C@@H](O)C[C@H]1CCc2sc3ncnc(OC4CCC(N5CCOCC5)CC4)c3c21 (stereo partly shown) [ND-2158, reference compound]	–	tolerability (clinical signs, gross pathological changes) (MV4-11 cells [2]; 100 mg/kg i.p. once daily): well tolerated without any treatment related clinical signs and gross pathological changes; tumor growth inhibition (MV4-11 cells [2]; 100 mg/kg i.p. once daily): 68%; body weight (MV4-11 cells [2]; all treatment groups, FIG. 4): No body weight reduction was observed
C[C@H](O)Cn1cc(-c2cccc(C(=O)Nc3cc4sc(N5CCOCC5)nc4nc3N3CCCCC3)n2)cn1	< 50	–
O=C(Nc1cc2sc(N3CCCCC3)nc2nc1N1CCCCC1)c1cccc(N2CC[C@H](O)C2)n1	> 500	–

SMILES	IC50 (MV4-11 cells [1]) [nM]	further results
Cn1cc2cc(NC(=O)c3cccc(N4CC[C@H](O)C4)n3)c(N3CCCCC3)cc2n1	50 to 500	–
Cc1cc(-c2nc(C(=O)Nc3cc4sc(N5CCOCC5)nc4nc3C3CC3)co2)ccn1	< 50	–
O=C(Nc1cc2oc(N3CCOCC3)nc2nc1N1CCCCC1)c1cccc(-c2cn[nH]c2)n1	< 50	–
Cc1cc(-c2nc(C(=O)Nc3cc4sc(N5CCOCC5)nc4nc3N3CC[C@H](O)C3)co2)ccn1	< 50	–
Nc1ccc(-c2cccc(C(=O)Nc3cc4cn(C5CCCC5)nc4cc3N3CCOCC3)n2)cn1	< 50	–
Cc1ccc(C(=O)Nc2cc3cn(C)nc3cc2N2CCCCC2)nc1-c1ccc(N)nc1	< 50	–
C[C@H](O)Cn1cc(-c2cccc(C(=O)Nc3cc4cn(C)nc4cc3C3CC3)n2)cn1	< 50	–
O=C(Nc1cc2sc(N3CCOCC3)nc2nc1N1CCCCC1)c1coc(N2CC[C@H](O)C2)n1	< 50	–
Cn1cc2cc(NC(=O)c3cccc(N4CC[C@@H](O)C4)n3)c(N3CCCCC3)cc2n1	> 500	–
O=C(Nc1cc2sc(N3CCOCC3)nc2nc1N1CCCCC1)c1cccc(N2CC[C@H](O)C2)n1	> 500	–
Cc1cc(-c2nc(C(=O)Nc3cc4cn(C)nc4cc3C3CC3)co2)ccn1	< 50	–
N[C@H]1CCN(c2cccc(C(=O)Nc3cc4sc(N5CCCCC5)nc4nc3N3CCCCC3)n2)C1	> 500	–
C[C@H](O)Cn1cc(-c2cccc(C(=O)Nc3cc4cn(C)nc4cc3N3CCCCC3)n2)cn1	< 50	–
Cc1ccc(C(=O)Nc2cc3cn(C)nc3cc2N2CCCCC2)nc1-c1cnn(C)c1	< 50	–
O=C(Nc1cc2sc(N3CCCCC3)nc2nc1N1CCCCC1)c1cccc(-c2cn[nH]c2)n1	50 to 500	–
Nc1ccc(-c2cccc(C(=O)Nc3cc4oc(N5CCOCC5)nc4nc3C3CC3)n2)cn1	> 500	–
O=C(Nc1cc2oc(N3CCOCC3)nc2nc1N1CCCCC1)c1cccc(N2CC[C@H](O)C2)n1	> 500	–
